The values below come from ChEMBL document CHEMBL5154766, “Synthesis, bioevaluation and molecular dynamics of pyrrolo-pyridine benzamide derivatives as potential antitumor agents in vitro and in vivo” (Eur J Med Chem, 2022).

One assay has as its system MCF7. The assay is described as follows: Antiproliferative activity against human MCF7 cells expressing c-Met after 48 hrs by MTT assay. It is filed as functional, cell-based. As to conditions: MCF7, 48 h. A general note: Formazan colour is commonly taken as a measure of viable cells.
By IC50 is commonly meant the point on the concentration scale where inhibition reaches its midpoint. Higher therefore signals lower potency. `O=C(Nc1ccc(Oc2ccnc3[nH]ccc23)c(F)c1)c1cn(-c2ccc(F)c(Cl)c2)c2ncccc2c1=O` yielded an IC50 of 12 µM.
Molecule `Cn1ccc2c(Oc3ccc(NC(=O)c4cn(-c5ccccc5)c5ncccc5c4=O)cc3F)ccnc21` yielded an IC50 of 14.8 µM.
Turning to `O=C(Nc1ccc(Oc2ccnc3[nH]ccc23)cc1)c1cn(-c2ccc(Br)cc2)c2ncccc2c1=O`, half-maximal inhibition (IC50) required 30.8 µM.
The same measure, in the same setting: in the case of `O=C(Nc1ccc(Oc2ccnc3[nH]ccc23)c(F)c1)c1cn(-c2ccccc2)c2ncccc2c1=O` it was 13 µM.

The test system of another assay is HeLa. The assay is described as follows: Antiproliferative activity against human HeLa cells expressing c-Met after 48 hrs by MTT assay. Format: functional, cell-based.
Details: not given
The molecule `Cn1ccc2c(Oc3ccc(NC(=O)c4cn(-c5ccc(F)cc5)c5ncccc5c4=O)cc3)ccnc21` displayed a half-inhibitory concentration (IC50) of 76.6 µM. In other words, the double-digit micromolar range.
`O=C(Nc1ccc(Oc2ccnc3[nH]ccc23)cc1)c1cn(-c2ccc(F)cc2)c2ncccc2c1=O` displayed an IC50 of 86 µM.
Consider `O=C(Nc1ccc(Oc2ccnc3[nH]ccc23)cc1)c1cn(-c2ccc(C(F)(F)F)cc2Cl)c2ncccc2c1=O`, for which the IC50 is 50.3 µM.
The same measure, in the same setting: in the case of `Cn1ccc2c(Oc3ccc(NC(=O)c4cn(-c5ccc(Cl)cc5)c5ncccc5c4=O)cc3)ccnc21` it was 63 µM; in that of `Cn1ccc2c(Oc3ccc(NC(=O)c4cn(-c5ccc(C(F)(F)F)cc5Cl)c5ncccc5c4=O)cc3)ccnc21`, 80.3 µM; in that of `O=C(Nc1ccc(Oc2ccnc3[nH]ccc23)c(F)c1)c1cn(-c2ccc(F)c(Cl)c2)c2ncccc2c1=O`, 53.1 µM.
`Cn1ccc2c(Oc3ccc(NC(=O)c4cn(-c5ccc(Br)cc5F)c5ncccc5c4=O)cc3F)ccnc21` displayed an IC50 of 61.2 µM.
For the molecule `O=C(Nc1ccc(Oc2ccnc3[nH]ccc23)cc1)c1cn(-c2ccc(Cl)cc2)c2ncccc2c1=O`, the IC50 stood at 53.3 µM. The IC50 values of the last two molecules are within 1.5-fold of each other.
`O=C(Nc1ccc(Oc2ccnc3[nH]ccc23)cc1)c1cn(-c2ccc(Br)cc2)c2ncccc2c1=O` yielded a half-maximal inhibitory concentration (IC50) of 49.3 µM.
On to `O=C(Nc1ccc(Oc2ccnc3[nH]ccc23)c(F)c1)c1cn(-c2ccccc2)c2ncccc2c1=O`, for which half-maximal inhibition (IC50) was put at 29.3 µM.

In another assay the test system is A549. The assay is described as follows: Antiproliferative activity against human A549 cells expressing c-Met after 48 hrs by MTT assay. Format: functional, cell-based. Particulars: A549, 48 h.
Consider `O=C(Nc1ccc(Oc2ccnc3[nH]ccc23)c(F)c1)c1cn(-c2ccc(Cl)cc2)c2ncccc2c1=O`, for which the midpoint of inhibition, the IC50, lay at 5.29 µM.
Turning to `Cn1ccc2c(Oc3ccc(NC(=O)c4cn(-c5ccc(F)cc5)c5ncccc5c4=O)cc3)ccnc21`, the IC50 was 16.8 µM.
Turning to `O=C(Nc1ccc(Oc2ccnc3[nH]ccc23)cc1)c1cn(-c2ccc(F)cc2)c2ncccc2c1=O`, 9.62 µM corresponded to half-maximal inhibition (IC50). Against the preceding molecule, the IC50 is about 1.7-fold lower.
For `Cn1ccc2c(Oc3ccc(NC(=O)c4cn(-c5ccc(Cl)cc5)c5ncccc5c4=O)cc3)ccnc21`, the IC50 was determined as 15.3 µM.
In turn, `O=C(Nc1ccc(Oc2ccnc3[nH]ccc23)cc1)c1cn(-c2ccc(Br)cc2F)c2ncccc2c1=O` had an IC50 of 22.7 µM.
Same read-out and setting: the same measure for `Cn1ccc2c(Oc3ccc(NC(=O)c4cn(-c5ccc(Br)cc5F)c5ncccc5c4=O)cc3)ccnc21`: 28.7 µM; for `O=C(Nc1ccc(Oc2ccnc3[nH]ccc23)c(F)c1)c1cn(-c2ccc(F)c(Cl)c2)c2ncccc2c1=O`: 9.71 µM; for `Cn1ccc2c(Oc3ccc(NC(=O)c4cn(-c5ccc(Br)cc5F)c5ncccc5c4=O)cc3F)ccnc21`: 29.9 µM.
Consider `Cn1ccc2c(Oc3ccc(NC(=O)c4cn(-c5ccccc5)c5ncccc5c4=O)cc3F)ccnc21`, for which the IC50 stood at 16.9 µM.
The molecule `O=C(Nc1ccc(Oc2ccnc3[nH]ccc23)cc1)c1cn(-c2ccc(Br)cc2)c2ncccc2c1=O` registered an IC50 of 8.39 µM. This IC50 lies about 2-fold lower than the previous one.
On the same count and under the same terms, in the case of `O=C(Nc1ccc(Oc2ccnc3[nH]ccc23)c(F)c1)c1cn(-c2ccccc2)c2ncccc2c1=O` it was 6.51 µM.
